Measurements from US8895578B2, “Carboxamide, sulfonamide and amine compounds and methods for using the same” (Rigel Pharmaceuticals, Inc., priority 2007, dated 2014).

Biological target: AMPK
Experiment: AMPK activation, enzyme-linked immunosorbent assay
Format: biochemical
Details: Table 2, ELISA
Protocol: Compounds 1-54 were assayed for their ability to activate AMPK using an enzyme-linked immunosorbent assay.
Compounds 55-62 of Table 1 were assayed for their ability to activate AMPK using an enzyme-linked immunosorbent assay.
Compounds 63-66 of Table 1 were assayed for their ability to activate AMPK using an enzyme-linked immunosorbent assay.
Compounds 67-71 of Table 1 were assayed for their ability to activate AMPK using an enzyme-linked immunosorbent assay.
Compound 72 of Table 1 was assayed for its ability to activate AMPK using an enzyme-linked immunosorbent assay.

Structure (SMILES) | EC50
N#Cc1ccc(CN2CCC(NC(=O)c3ccc4[nH]c5c(c4c3)CN(S(=O)(=O)c3ccc(C#N)cc3)CC5)CC2)cc1 [Compound 25, N-(1-(4-cyanobenzyl)piperidin-4-yl)-2-(4-cyanophenylsulfonyl)-2,3,4,5-tetrahydro-1H-pyrido[4,3-b]indole-8-carboxamide] | 10 to 50 µM
O=C(NC1CCN(S(=O)(=O)c2ccc(F)cc2)CC1)c1ccc2[nH]c3c(c2c1)CN(Cc1ccc(C(F)(F)F)cc1)CC3 [Compound 28, N-(1-(4-fluorophenyl-sulfonyl)piperidin-4-yl)-2-(4-(trifluoromethyl)benzyl)-2,3,4,5-tetrahydro-1H-pyrido[4,3-b]indole-8-carboxamide] | 1 to 5 µM
O=C(NC1CCN(C(=O)Nc2ccc(C(F)(F)F)cc2)CC1)c1ccc2[nH]c3c(c2c1)CN(Cc1ccc(C(F)(F)F)cc1)CC3 [Compound 33, 2-(4-(trifluoromethyl)benzyl)-N-(1-(4-(trifluoro-methyl)phenylcarbamoyl)piperidin-4-yl)-2,3,4,5-tetrahydro-1H-pyrido[4,3-b]indole-8-carboxamide] | 1 to 5 µM
CC(C)(C)OC(=O)N1CCC(NC(=O)c2ccc3[nH]c4c(c3c2)CN(Cc2ccc(C(N)=O)cc2)CC4)CC1 [Compound 43, tert-butyl 4-(2-(4-carbamoyl-benzyl)-2,3,4,5-tetrahydro-1H-pyrido[4,3-b]indole-8-carboxamido)piperidine-1-carboxylate] | > 100 µM
Cn1c2c(c3cc(C(=O)NC4CCN(Cc5ccc(C(F)(F)F)cc5)CC4)ccc31)CN(Cc1ccc(C(F)(F)F)cc1)CC2 [Compound 17, N-(1-(4-trifluoromethyl-benzyl)piperidin-4-yl)-5-methyl-2-(4-(trifluoro-methyl)benzyl)-2,3,4,5-tetrahydro-1H-pyrido [4,3-b]indole-8-carboxamide] | 0.5 to 1 µM
N#Cc1ccc(CN2CCC(NC(=O)c3ccc4[nH]c5c(c4c3)CN(S(=O)(=O)c3cccnc3)CC5)CC2)cc1 [Compound 26, N-(1-(4-cyanobenzyl)piperidin-4-yl)-2-(pyridin-3-ylsulfonyl)-2,3,4,5-tetrahydro-1H-pyrido [4,3-b]indole-8-carboxamide] | 10 to 50 µM
N#Cc1ccc(NC(=O)N2CCC(NC(=O)c3ccc4[nH]c5c(c4c3)CN(Cc3ccc(C(F)(F)F)cc3)CC5)CC2)cc1 [Compound 27, N-(1-(4-cyanophenyl-carbamoyl)piperidin-4-yl)-2-(4-(trifluoro-methyl)benzyl)-2,3,4,5-tetrahydro-1H-pyrido [4,3-b]indole-8-carboxamide] | 1 to 5 µM
N#Cc1cccc(S(=O)(=O)N2CCC(NC(=O)c3ccc4[nH]c5c(c4c3)CN(Cc3ccc(C(F)(F)F)cc3)CC5)CC2)c1 [Compound 29, N-(1-(3-cyanophenyl-sulfonyl)piperidin-4-yl)-2-(4-(trifluoromethyl)benzyl)-2,3,4,5-tetrahydro-1H-pyrido[4,3-b]indole-8-carboxamide] | 1 to 5 µM
O=C(NC1CCN(C(=O)c2cccnc2)CC1)c1ccc2[nH]c3c(c2c1)CN(c1ccc(F)cc1)CC3 [Compound 40, 2-(4-fluorophenyl)-N-(1-nicotinoylpiperidin-4-yl)-2,3,4,5-tetrahydro-1H-pyrido[4,3-b]indole-8-carboxamide] | > 100 µM
O=C(NC1CCN(c2ccc(F)cc2)CC1)c1ccc2[nH]c3c(c2c1)CN(Cc1ccc(C(F)(F)F)cc1)CC3 [Compound 15, N-(1-(4-fluorophenyl)piperidin-4-yl)-2-(4-(trifluoromethyl)benzyl)-2,3,4,5-tetrahydro-1H-pyrido[4,3-b]indole-8-carboxamide] | < 0.5 µM
O=C(NC1CCN(Cc2cccnc2)CC1)c1ccc2[nH]c3c(c2c1)CN(c1ccc(F)cc1)CC3 [Compound 36, 2-(4-fluorophenyl)-N-(1-(pyridin-3-ylmethyl)piperidin-4-yl)-2,3,4,5-tetrahydro-1H-pyrido[4,3-b]indole-8-carboxamide] | > 100 µM
N#Cc1ccc(CN2CCC(NC(=O)c3ccc4[nH]c5c(c4c3)CN(S(=O)(=O)c3ccc(C(F)(F)F)cc3)CC5)CC2)cc1 [Compound 24, N-(1-(4-cyanobenzyl)piperidin-4-yl)-2-(4-(trifluoromethyl)phenyl-sulfonyl)-2,3,4,5-tetrahydro-1H-pyrido[4,3-b]indole-8-carboxamide] | 1 to 5 µM
O=C(NC1CCN(S(=O)(=O)c2ccc(F)cc2)CC1)c1ccc2[nH]c3c(c2c1)CN(c1ccc(F)cc1)CC3 [Compound 35, 2-(4-fluorophenyl)-N-(1-(4-fluorophenylsulfonyl)piperidin-4-yl)-2,3,4,5-tetrahydro-1H-pyrido[4,3-b] indole-8-carboxamide] | 10 to 50 µM
O=C(NC1CCN(S(=O)(=O)c2cccc(C(F)(F)F)c2)CC1)c1ccc2[nH]c3c(c2c1)CN(Cc1ccc(C(F)(F)F)cc1)CC3 [Compound 30, 2-(4-(trifluoromethyl)benzyl)-N-(1-(3-(trifluoro-methyl)phenylsulfonyl)piperidin-4-yl)-2,3,4,5-tetrahydro-1H-pyrido [4,3-b]indole-8-carboxamide] | 1 to 5 µM
O=C(NC1CCN(S(=O)(=O)c2ccc(C(F)(F)F)cc2)CC1)c1ccc2[nH]c3c(c2c1)CN(Cc1ccc(C(F)(F)F)cc1)CC3 [Compound 23, 2-(4-(trifluoromethyl)benzyl)-N-(1-(4-(trifluoro-methyl)phenylsulfonyl)piperidin-4-yl)-2,3,4,5-tetrahydro-1H-pyrido[4,3-b]indole-8-carboxamide] | 1 to 5 µM
O=C(NC1CCN(Cc2ccccc2)CC1)c1ccc2[nH]c3c(c2c1)CN(S(=O)(=O)c1ccc(C(F)(F)F)cc1)CC3 [Compound 19, N-(1-benzylpiperidin-4-yl)-2-(4-(trifluoromethyl)phenylsulfonyl)-2,3,4,5-tetrahydro-1H-pyrido [4,3-b]indole-8-carboxamide] | > 100 µM
NC(=O)c1ccc(CN2CCc3[nH]c4ccc(C(=O)NC5CCN(Cc6ccncc6)CC5)cc4c3C2)cc1 [Compound 45, 2-(4-carbamoylbenzyl)-N-(1-(pyridin-4-ylmethyl)piperidin-4-yl)-2,3,4,5-tetrahydro-1H-pyrido [4,3-b]indole-8-carboxamide] | > 100 µM

Second part, the compound after the results:

EC50 | Structure (SMILES)
> 100 µM | NC(=O)c1ccc(CN2CCc3[nH]c4ccc(C(=O)NC5CCN(C(=O)c6ccncc6)CC5)cc4c3C2)cc1 [Compound 46, 2-(4-carbamoylbenzyl)-N-(1-isonicotinoylpiperidin-4-yl)-2,3,4,5-tetrahydro-1H-pyrido[4,3-b]indole-8-carboxamide]
< 0.5 µM | O=C(NC1CCN(Cc2ccncc2)CC1)c1ccc2[nH]c3c(c2c1)CN(Cc1ccc(C(F)(F)F)cc1)CC3 [Compound 50, N-(1-(pyridin-4-ylmethyl)piperidin-4-yl)-2-(4-(trifluoromethyl)benzyl)-2,3,4,5-tetrahydro-1H-pyrido[4,3-b]indole-8-carboxamide]
10 to 50 µM | NC(=O)c1ccc(CN2CCc3[nH]c4ccc(C(=O)NC5CCN(Cc6ccc(C(F)(F)F)cc6)CC5)cc4c3C2)cc1 [Compound 47, 2-(4-carbamoylbenzyl)-N-(1-(4-(trifluoromethyl)benzyl)piperidin-4-yl)-2,3,4,5-tetrahydro-1H-pyrido[4,3-b]indole-8-carboxamide]
> 100 µM | NC(=O)c1ccc(CN2CCc3[nH]c4ccc(C(=O)NC5CCN(Cc6ccc(F)cc6)CC5)cc4c3C2)cc1 [Compound 48, 2-(4-carbamoylbenzyl)-N-(1-(4-fluorobenzyl)piperidin-4-yl)-2,3,4,5-tetrahydro-1H-pyrido[4,3-b] indole-8-carboxamide]
1 to 5 µM | NC(=O)c1ccc(CN2CCC(NC(=O)c3ccc4[nH]c5c(c4c3)CN(Cc3ccc(C(F)(F)F)cc3)CC5)CC2)cc1 [Compound 52, N-(1-(4-carbamoylbenzyl)piperidin-4-yl)-2-(4-(trifluoromethyl)benzyl)-2,3,4,5-tetrahydro-1H-pyrido[4,3-b]indole-8-carboxamide]

Same assay, conditions: Table 3, ELISA

EC50 | Structure (SMILES)
< 0.1 µM | O=C(NC1CCN(Cc2ccccc2)CC1)c1ccc(CN2CCN(Cc3ccccc3)CC2)cc1 [Compound 55, 4-((4-benzylpiperazin-1-yl)methyl)-N-(1-benzyl-piperidin-4-yl)benzamide]
0.1 to 0.5 µM | O=C(NC1CCN(Cc2ccncc2)CC1)c1ccc(CN2CCN(Cc3ccccc3)CC2)cc1 [Compound 59, 4-((4-benzylpiperazin-1-yl)methyl)-N-(1-(pyridin-4-ylmethyl)piperidin-4-yl)benzamide]
1 to 10 µM | O=C(NC1CCN(Cc2ccccc2)CC1)c1ccc(CN2CCN(c3ccccn3)CC2)cc1 [Compound 58, N-(1-benzylpiperidin-4-yl)-4-((4-(pyridin-2-yl)piperazin-1-yl)methyl) benzamide]
< 0.1 µM | O=C(NC1CCN(Cc2ccccc2)CC1)c1ccc(CN2CCN(c3ccc(C(F)(F)F)cn3)CC2)cc1 [Compound 57, N-(1-benzylpiperidin-4-yl)-4-((4-(5-(trifluoro-methyl)pyridin-2-yl)piperazin-1-yl)methyl) benzamide]

Same assay, conditions: Table 4, ELISA

EC50 | Structure (SMILES)
1 to 5 µM | O=C(NC1CCN(Cc2ccccc2)CC1)c1ccc2cc(OC3CCN(c4ccc(C(F)(F)F)cc4)CC3)ccc2c1 [Compound 65, N-(1-benzylpiperidin-4-yl)-6-(1-(4-(trifluoro-methyl)phenyl)piperidin-4-yloxy)-2-naphthamide]

Same assay, conditions: Table 5, ELISA

EC50 | Structure (SMILES)
> 5 µM | O=C(NC1CCNCC1)c1cnc2ccc(OC3CCN(c4ccc(C(F)(F)F)cc4)CC3)cc2c1 [Compound 68, N-(piperidin-4-yl)-6-(1-(4-(trifluoromethyl)phenyl)piperidin-4-yloxy) quinoline-3-carboxamide]
0.1 to 0.5 µM | CC(C)(C)OC(=O)N1CCC(NC(=O)c2cnc3ccc(OC4CCN(c5ccc(C(F)(F)F)cc5)CC4)cc3c2)CC1 [Compound 67, tert-butyl 4-(6-(1-(4-(trifluoromethyl)phenyl)piperidin-4-yloxy)quinoline-3-carboxamido)piperidine-1-carboxylate]
